Our source for the Km values is paper PMC5724969 (Nature chemical biology, 2017).

The Km is the concentration of substrate that gives half-maximal velocity.

The subject of this test is chPylRS (chimeric pyrrolysyl-tRNA synthetase). Description: […]-tRNA aminoacylation assay, nuclease P1/TLC. The test is classed as biochemical, Methanosarcina mazei; Methanosarcina barkeri. The note with it: tRNA(Pyl), 10 mM MgCl2, pH 7.2.

Read-outs that look alike come from different tables or passages of the source.

For the molecule `Nc1ncnc2c1ncn2[C@@H]1O[C@H](COP(=O)(O)OP(=O)(O)OP(=O)(O)O)[C@@H](O)[C@H]1O` [ATP], the Km (read-out: KM ^ATP, BocK as amino acid) was 2.54 ± 0.16 µM. Consider `CC(C)(C)OC(=O)NCCCC[C@H](N)C(=O)O` [compound 2, BocK], for which, where the note is “read-out: KM^BocK, ATP”, the Km worked out at 1030 ± 50 µM.
